From patent US12721905B2, “Combination of anti-HER2 antibody-drug conjugate and PARP1 selective inhibitor” (AstraZeneca UK Limited, priority 2020, dated 2026)

Key:
BRCA2 (−/−) DLD1 cells = experiment: PARP proliferation assay (4 day compound dosing), BRCA2 (-/-) DLD1; format: cell-based; details: Homo sapiens, DLD-1, 96 h, read-out: BRCA2 −/− DLD-1 prolif 4 d IC50
DLD1 cells = experiment: PARP proliferation assay (4 day compound dosing), WT DLD1; format: cell-based; details: Homo sapiens, DLD-1, 96 h, read-out: WT DLD-1 prolif 4 d IC50
[1] = molecular target: T1, Recombinant full length PARP2 protein (Homo sapiens, UniProt Q9UGN5); experiment: PARP fluorescence anisotropy binding assay, PARP2
T1 construct: Recombinant full length PARP2 protein
T1 sequence (Q9UGN5 whole entry): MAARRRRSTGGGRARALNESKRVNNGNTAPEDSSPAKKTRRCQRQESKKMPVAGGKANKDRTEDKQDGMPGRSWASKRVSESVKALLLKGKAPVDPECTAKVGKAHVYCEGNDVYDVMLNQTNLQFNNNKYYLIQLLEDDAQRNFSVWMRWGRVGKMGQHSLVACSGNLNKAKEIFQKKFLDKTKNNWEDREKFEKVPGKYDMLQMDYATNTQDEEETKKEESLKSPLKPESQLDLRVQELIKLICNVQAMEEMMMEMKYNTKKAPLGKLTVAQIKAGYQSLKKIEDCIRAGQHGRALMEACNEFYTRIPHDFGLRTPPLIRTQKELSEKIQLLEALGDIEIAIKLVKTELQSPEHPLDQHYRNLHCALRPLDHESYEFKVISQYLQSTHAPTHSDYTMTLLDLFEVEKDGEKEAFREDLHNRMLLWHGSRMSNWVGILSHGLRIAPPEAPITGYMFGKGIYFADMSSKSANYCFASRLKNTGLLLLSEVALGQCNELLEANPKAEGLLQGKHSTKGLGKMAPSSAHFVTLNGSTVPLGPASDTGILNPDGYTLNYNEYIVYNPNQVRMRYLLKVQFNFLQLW

NCI-N87 xenograft = experiment: Antitumor test in vivo, NCI-N87 xenograft (Example 5); design: species or system Female Nude mice; details: AZD5305 1 mg/kg PO QD for 28 days
5637 = experiment: High-throughput combination screen, 7-day CellTiter-Glo cell viability (Example 6), 5637; format: cell-based; details: AZD5305 as single agent, HER2 mutant cell line 5637
Experimental: Combination activity was assessed based on a combination of the ΔEmax and Loewe synergy scores.
FIGS. 18A and 19A show matrices of measured cell viability signals. […] Values in the box represent the ratio of cells treated with drug A+B compared to DMSO control at day 7. All values are normalised to cell viability values at day 0. Values between 0 and 100 represent % growth inhibition and values above 100 represent cell death.
FIGS. 18B and 19B show Loewe excess matrices. Values in the box represent excess values calculated by the Loewe additivity model.
FIGS. 18C and 19C show HSA excess matrices. Values in the box represent excess values calculated by the HSA (Highest Single Agent) model.

CCc1cc2ncc(CN3CCN(c4ccc(C(=O)NC)nc4C(F)(F)F)CC3)cc2[nH]c1=O [Example 30]
IC50 (BRCA2 (−/−) DLD1 cells): 0.004 µM
IC50 (DLD1 cells): > 30 µM

CCc1cc2ncc(CN3CCN(c4ccc(C(=O)NC)nc4C)CC3)cc2[nH]c1=O [Example 31]
IC50 [1]: 3 µM

CCc1cc2ncc(CN3CCN(c4ccc(C(=O)NC)nc4)CC3)cc2[nH]c1=O [Example 4]
IC50 (BRCA2 (−/−) DLD1 cells): > 0.017 µM

CCc1cc2ncc(CN3CCN(c4ccc(C(=O)NC)nc4)CC3)cc2[nH]c1=O [Synthesis Example 4, 5-[4-[(7-ethyl-6-oxo-5H-1,5-naphthyridin-3-yl)methyl]piperazin-1-yl]-N-methyl-pyridine-2-carboxamide]
TGI % day 41 (NCI-N87 xenograft): 40%
single agent activity 5637: not active
